From PubChem BioAssay AID1259411 (Chemical Carcinogenesis Research Information System (CCRIS), 2018)
Calls of active or inactive are those of the source. The rule behind the calls is not given here.

Tested on: rodent carcinogenicity bioassays, tumor incidence
Test: CCRIS carcinogenicity studies
Summary of the method: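 NCI-built, expert-reviewed records of carcinogenicity and related test outcomes (mutagenicity, tumor promotion/inhibition) compiled from published and report sources, historical span 1985-2011, not updated.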

Q: For OCl, which carcinogen call (Species: RAT, Strain/Sex: SPRAGUE-DAWLEY/FEMALE, Route: ORAL, Dose: 0, 100, 500, 750 MG/L IN DRINKING WATER FOR 104 WK (STUDY DURATION: LIFETIME), Dose: 0, 100, 500, 750 MG/L IN DRINKING WATER FOR 104 WK (STUDY DURATION: LIFETIME), Tumor Site: Type of Lesion: LYMPHATIC SYSTEM: LYMPHOMA OR LEUKEMIA) is on record?
A: The carcinogen call was “active; positive”.

Q: What about the carcinogen call (Species: RAT, Strain/Sex: SPRAGUE-DAWLEY/MALE, Route: ORAL, Dose: 0, 100, 500, 750 MG/L IN DRINKING WATER FOR 104 WK (STUDY DURATION: LIFETIME), Dose: 0, 100, 500, 750 MG/L IN DRINKING WATER FOR 104 WK (STUDY DURATION: LIFETIME)) of the same compound?
A: The carcinogen call was “inactive; negative”.

Q: How did the carcinogen call (Species: MOUSE, Strain/Sex: B6C3F1/FEMALE, Route: GAVAGE, Dose: 0, 500, 1000 MG/KG IN CORN OIL 5 D/WK FOR 103 WK (STUDY DURATION: 105 WK), Dose: 0, 500, 1000 MG/KG IN CORN OIL 5 D/WK FOR 103 WK (STUDY DURATION: 105 WK)) turn out when C=C(C)[C@H]1CC=C(C)CC1 was run?
A: The carcinogen call was “inactive; negative”.

Q: What about the carcinogen call (Species: MOUSE, Strain/Sex: B6C3F1/MALE, Route: GAVAGE, Dose: 0, 250, 500 MG/KG IN CORN OIL 5 D/WK FOR 103 WK (STUDY DURATION: 105 WK), Dose: 0, 250, 500 MG/KG IN CORN OIL 5 D/WK FOR 103 WK (STUDY DURATION: 105 WK)) of the same compound?
A: The carcinogen call was “inactive; negative”.

Q: And the carcinogen call (Species: RAT, Strain/Sex: F344/FEMALE, Route: GAVAGE, Dose: 0, 300, 600 MG/KG IN CORN OIL 5 D/WK FOR 103 WK (STUDY DURATION: 106 WK), Dose: 0, 300, 600 MG/KG IN CORN OIL 5 D/WK FOR 103 WK (STUDY DURATION: 106 WK))?
A: The carcinogen call was “inactive; negative”.

Q: And the carcinogen call (Species: RAT, Strain/Sex: F344/MALE, Route: GAVAGE, Dose: 0, 75, 150 MG/KG IN CORN OIL 5 D/WK FOR 103 WK (STUDY DURATION: 106 WK), Dose: 0, 75, 150 MG/KG IN CORN OIL 5 D/WK FOR 103 WK (STUDY DURATION: 106 WK), Tumor Site: Type of Lesion: KIDNEY: TUBULAR CELL ADENOMA, TUBULAR CELL ADENOMA OR ADENOCARCINOMA)?
A: Its carcinogen call is “active; positive”.

Q: How did the carcinogen call (Species: RAT, Strain/Sex: F344/FEMALE, Route: ORAL, Dose: 0, 80 ML OF SOLUTION OF 126 MG/L IN NEUTRAL DEIONIZED DRINKING WATER 5 D/WK FOR 26 WK (STUDY DURATION: 40 WK), Tumor Site: Type of Lesion: NASAL CAVITY: SQUAMOUS CELL CARCINOMA, TONGUE: TUMOR, FORESTOMACH: TUMOR, ESOPHAGUS: TUMOR, TRACHEA: TUMOR, Tumor Site: Type of Lesion: NASAL CAVITY: SQUAMOUS CELL CARCINOMA, TONGUE: TUMOR, FORESTOMACH: TUMOR, ESOPHAGUS: TUMOR, TRACHEA: TUMOR) turn out when CC1CN(N=O)CCC1=O (stereo not drawn) was run?
A: The carcinogen call was “active; positive”.

Q: With CCC(C)Br (stereo not drawn) as the compound, how does the carcinogen call (Species: MOUSE, Route: INTRAPERITONEAL, Tumor Site: Type of Lesion: LUNG) read?
A: Its carcinogen call is “active; positive”.

Q: With C=C(C)C(=O)OC as the compound, how does the carcinogen call (Species: HAMSTER, Strain/Sex: GOLDEN/FEMALE, Route: INHALATION, Dose: 0, 25, 100, 400 PPM IN AIR 6 HR/D 5 D/WK FOR 18 MO (STUDY DURATION: 78 WK), Dose: 0, 25, 100, 400 PPM IN AIR 6 HR/D 5 D/WK FOR 18 MO (STUDY DURATION: 78 WK)) read?
A: Its carcinogen call is “inactive; negative”.

Q: What about the carcinogen call (Species: HAMSTER, Strain/Sex: GOLDEN/MALE, Route: INHALATION, Dose: 0, 25, 100, 400 PPM IN AIR 6 HR/D 5 D/WK FOR 18 MO (STUDY DURATION: 78 WK), Dose: 0, 25, 100, 400 PPM IN AIR 6 HR/D 5 D/WK FOR 18 MO (STUDY DURATION: 78 WK)) of the same compound?
A: The carcinogen call was “inactive; negative”.

Q: What about the carcinogen call (Species: MOUSE, Strain/Sex: B6C3F1/FEMALE, Route: INHALATION, Dose: 0, 500, 1000 PPM 6 HR/D, 5 D/WK FOR 102 WK, Dose: 0, 500, 1000 PPM 6 HR/D, 5 D/WK FOR 102 WK) of the same compound?
A: Its carcinogen call is “inactive; negative”.

Q: And the carcinogen call (Species: MOUSE, Strain/Sex: B6C3F1/MALE, Route: INHALATION, Dose: 0, 500, 1000 PPM 6 HR/D, 5 D/WK FOR 102 WK, Dose: 0, 500, 1000 PPM 6 HR/D, 5 D/WK FOR 102 WK)?
A: Its carcinogen call is “inactive; negative”.

Q: What about the carcinogen call (Species: RAT, Strain/Sex: F344/FEMALE, Route: INHALATION, Dose: 0, 25, 100, 400 PPM IN AIR 6 HR/D 5 D/WK FOR 24 MO (STUDY DURATION: 104-106 WK), Dose: 0, 25, 100, 400 PPM IN AIR 6 HR/D 5 D/WK FOR 24 MO (STUDY DURATION: 104-106 WK)) of the same compound?
A: The carcinogen call was “inactive; negative”.

Q: What about the carcinogen call (Species: RAT, Strain/Sex: F344/FEMALE, Route: INHALATION, Dose: 0, 250, 500 PPM 6 HR/D, 5 D/WK FOR 102 WK, Dose: 0, 250, 500 PPM 6 HR/D, 5 D/WK FOR 102 WK) of the same compound?
A: The carcinogen call was “inactive; negative”.

Q: And the carcinogen call (Species: RAT, Strain/Sex: F344/MALE, Route: INHALATION, Dose: 0, 25, 100, 400 PPM IN AIR 6 HR/D 5 D/WK FOR 24 MO (STUDY DURATION: 104-106 WK), Dose: 0, 25, 100, 400 PPM IN AIR 6 HR/D 5 D/WK FOR 24 MO (STUDY DURATION: 104-106 WK))?
A: The carcinogen call was “inactive; negative”.

Q: And the carcinogen call (Species: RAT, Strain/Sex: F344/MALE, Route: INHALATION, Dose: 0, 500, 1,000 PPM 6 HR/D, 5 D/WK FOR 102 WK, Dose: 0, 500, 1,000 PPM 6 HR/D, 5 D/WK FOR 102 WK)?
A: The carcinogen call was “inactive; negative”.

Q: CC(=O)Nc1ccc(O)cc1 was tested. Which carcinogen call (Species: MOUSE, Strain/Sex: B6C3F1/FEMALE, Route: ORAL, Dose: 0, 600, 3000, 6000 PPM IN DIET FOR 103 WK (STUDY DURATION: 106 WK), Dose: 0, 600, 3000, 6000 PPM IN DIET FOR 103 WK (STUDY DURATION: 106 WK)) did it give?
A: The carcinogen call was “inactive; negative”.

Q: What about the carcinogen call (Species: MOUSE, Strain/Sex: B6C3F1/MALE, Route: ORAL, Dose: 0, 600, 3000, 6000 PPM IN DIET FOR 103 WK (STUDY DURATION: 106 WK), Dose: 0, 600, 3000, 6000 PPM IN DIET FOR 103 WK (STUDY DURATION: 106 WK)) of the same compound?
A: The carcinogen call was “inactive; negative”.

Q: What about the carcinogen call (Species: MOUSE, Strain/Sex: B6C3F1/MALE, Route: ORAL, Dose: 0, 5000, 10000 PPM IN DIET BEGINNING AT 6 WK OF AGE AND CONTINUING FOR 70 WK (STUDY DURATION: 72 WK), Dose: 0, 5000, 10000 PPM IN DIET BEGINNING AT 6 WK OF AGE AND CONTINUING FOR 70 WK (STUDY DURATION: 72 WK)) of the same compound?
A: The carcinogen call was “inactive; negative”.

Q: What about the carcinogen call (Species: MOUSE, Strain/Sex: STRAIN-IF/FEMALE, Route: ORAL, Dose: 0, 0.5, 1% IN DIET FOR 18 MO (STUDY DURATION: 18 MO), Dose: 0, 0.5, 1% IN DIET FOR 18 MO (STUDY DURATION: 18 MO), Tumor Site: Type of Lesion: LIVER: HEPATOCELLULAR CARCINOMA OR ADENOMA) of the same compound?
A: The carcinogen call was “active; positive”.

Q: And the carcinogen call (Species: MOUSE, Strain/Sex: STRAIN-IF/MALE,FEMALE, Route: ORAL, Dose: 0.5, 1.0% IN DIET FOR 18 MO, Tumor Site: Type of Lesion: LIVER: HEPATOCELLULAR ADENOMA, CARCINOMA)?
A: The carcinogen call was “active; positive”.

Q: And the carcinogen call (Species: MOUSE, Strain/Sex: STRAIN-IF/MALE, Route: ORAL, Dose: 0, 0.5, 1% IN DIET FOR 18 MO (STUDY DURATION: 18 MO), Dose: 0, 0.5, 1% IN DIET FOR 18 MO (STUDY DURATION: 18 MO), Tumor Site: Type of Lesion: LIVER: HEPATOCELLULAR CARCINOMA, HEPATOCELLULAR ADENOMA OR CARCINOMA)?
A: Its carcinogen call is “active; positive”.

Q: And the carcinogen call (Species: RAT, Strain/Sex: F344/FEMALE, Route: ORAL, Dose: 0, 0.65, 1.3% IN DIET FOR 104 WK (STUDY DURATION: 130 WK), Dose: 0, 0.65, 1.3% IN DIET FOR 104 WK (STUDY DURATION: 130 WK))?
A: The carcinogen call was “inactive; negative”.

Q: And the carcinogen call (Species: RAT, Strain/Sex: F344/FEMALE, Route: ORAL, Dose: 0, 600, 3000, 6000 PPM IN DIET FOR 103 WK (STUDY DURATION: 106 WK), Dose: 0, 600, 3000, 6000 PPM IN DIET FOR 103 WK (STUDY DURATION: 106 WK), Tumor Site: Type of Lesion: MULTIPLE ORGANS: MONONUCLEAR CELL LEUKEMIA)?
A: The carcinogen call was “equivocal”.

Q: And the carcinogen call (Species: RAT, Strain/Sex: F344/MALE, Route: ORAL, Dose: 0, 0.45, 0.9% IN DIET FOR 104 WK (STUDY DURATION: 130 WK), Dose: 0, 0.45, 0.9% IN DIET FOR 104 WK (STUDY DURATION: 130 WK))?
A: The carcinogen call was “inactive; negative”.

Q: What about the carcinogen call (Species: RAT, Strain/Sex: F344/MALE, Route: ORAL, Dose: 0, 600, 3000, 6000 PPM IN DIET FOR 103 WK (STUDY DURATION: 106 WK), Dose: 0, 600, 3000, 6000 PPM IN DIET FOR 103 WK (STUDY DURATION: 106 WK)) of the same compound?
A: Its carcinogen call is “inactive; negative”.

Q: Which carcinogen call (Species: RAT, Strain/Sex: CRL:CD BR/MALE, FEMALE (65/GROUP), Route: ORAL (GAVAGE), Dose: 10, 50, 150 MG/KG DAILY IN DISTILLED WATER (STUDY DURATION: 101 WK), Dose: 10, 50, 150 MG/KG DAILY IN DISTILLED WATER (STUDY DURATION: 101 WK), Tumor Site: Type of Lesion: BROWN ADIPOSE TISSUE: HIBERNOMA) does the source give for Cc1ccc(N(CC2=NCCN2)c2cccc(O)c2)cc1 here?
A: Its carcinogen call is “active; positive”.

Q: What about the carcinogen call (Species: RAT, Strain/Sex: CRL:CD BR/MALE, FEMALE (65/GROUP), Route: ORAL (GAVAGE), Dose: 10, 50, 150 MG/KG DAILY IN DISTILLED WATER (STUDY DURATION: 101 WK), Dose: 10, 50, 150 MG/KG DAILY IN DISTILLED WATER (STUDY DURATION: 101 WK), Tumor Site: Type of Lesion: PITUITARY: ADENOMA) of the same compound?
A: Its carcinogen call is “active; positive”.
